The values below come from PubChem BioAssay AID1053172 (The Scripps Research Institute Molecular Screening Center, 2014).

One may read the IC50 as the midpoint of a concentration-inhibition curve.

Active and inactive are the calls of the source. No rule for the calls is given here.

The test deals with HIV-1 integrase / human LEDGF/p75 complex. As to the kind of experiment: blockers of LEDGF/p75-dependent integrase activity – biochemical, TR-FRET, dose response (AID 1053172). As to conditions: TR-FRET integrase-LEDGF/p75 DNA integration. In general terms: TR-FRET usually uses a lanthanide donor and a delayed reading to cut background.
Consider `Nc1ccc2c(c1)C/C(=C/c1ccco1)C2=O`, for which the IC50 is > 36.6 µM (inactive).

Consider `O=C(CSc1nc2ccccc2o1)N/N=C/c1ccc(O)c(O)c1`, for which the IC50 was 1.93 µM.

Take `O=c1[nH]c2cc3c(cc2cc1CN(Cc1cccnc1)Cc1nnnn1Cc1ccco1)OCCO3`: the IC50 entry was “inactive”.

On to `COc1cc(/C=C/C=C2/CC/C(=C/C=C/c3ccc(O)c(OC)c3)C2=O)ccc1O`, for which the half-inhibitory concentration (IC50) was 4.93 µM.

For `O=C(Nc1nc(-c2ccco2)c(-c2ccco2)s1)C1CC(=O)N(c2ccc3c(c2)OCCO3)C1` (stereo not given), the IC50 entry is “inactive”.

With `O=C(CCN1C(=O)/C(=C/c2ccco2)SC1=S)Nc1ccc(C(=O)O)c(O)c1`, the IC50 entry is “inactive”.

As for `O=C(O)c1cccc(-n2cccc2/C=C/[N+](=O)[O-])c1`, the IC50 is 8.75 µM.

On to `O=C1CC(=O)N(Cc2ccco2)C(=O)N1`, for which the IC50 is 0.691 µM.

Regarding `C=CC1=C(C(=O)O)N2C(=O)[C@@H](NC(=O)/C(=N/OCC(=O)O)c3csc(N)n3)[C@H]2SC1`, the IC50 was 0.287 µM.

For `NC1=C(Cl)C(=O)c2ccc(S(N)(=O)=O)cc2C1=O`, the IC50 is 0.429 µM.

In the case of `Oc1ccc(/C=N/N=C/c2ccc(O)c(O)c2)cc1O`, the IC50 is 0.191 µM.

Turning to `CC1OC(Oc2c(-c3cc(O)c(O)c(O)c3)oc3cc(O)cc(O)c3c2=O)C(O)C(O)C1O` (stereo not given), the IC50 is 3.09 µM.

Consider `Cc1cnc(C=NNC(N)=S)c2cccc(N)c12`, for which the IC50 entry was “inactive”.

As for `O=C(N/N=C/c1ccc(O)cc1O)C(=O)N/N=C/c1ccc(O)cc1O`, the IC50 was 0.177 µM.

Consider `O=C1C(=Cc2ccco2)CCC1=Cc1ccco1`, for which the 50% inhibitory concentration (IC50) was 1.92 µM.

Take `COc1ccc(/C=C/C(=O)N2CCCc3ccccc32)cc1`: the IC50 is > 36.6 µM (inactive).

On to `Oc1ccc(NCc2ccccc2OCc2ccccc2)cc1`, for which the IC50 was > 36.5 µM (inactive).

Regarding `Nc1c(C(=O)N/N=C/c2cccnc2)oc2nc(-c3ccco3)cc(-c3ccco3)c12`, the IC50 was > 36.6 µM (inactive).

As to `N#Cc1c(SCC(=O)Nc2nccs2)sc2c(O)cc(=O)[nH]c12`, the 50% inhibitory concentration (IC50) was 8.63 µM.

`C=C(C)C(=O)Oc1ccc(N=Nc2ccc(C)cc2)ccc1=O`: the IC50 is 3.48 µM.

In the case of `O=[N+]([O-])c1cc(Br)c(O)c(C=Nc2ccc(N3CCOCC3)cc2)c1`, the IC50 entry is “inactive”.

As for `O=C(O)CC(CCc1ccccc1)OC1OC(CO)C(O)C(O)C1O` (stereo not given), the IC50 is 0.62 µM.

Take `Cc1csc(NC(=O)CSc2sc3c(O)cc(=O)[nH]c3c2C#N)n1`: the IC50 is 9.73 µM.

Consider `O=C(O)c1ccc(-n2cccc2/C=C2/NC(=O)N(c3ccccc3)C2=O)cc1`, for which the IC50 was 2.85 µM.

Consider `O=C(Cn1cnc([N+](=O)[O-])n1)c1ccc(O)c(O)c1`, for which the IC50 result is “inactive”.

As to `CN(C(=O)COC(=O)c1cc(-c2ccco2)nc2ccccc12)C1CCS(=O)(=O)C1` (stereo not given), the half-maximal inhibitory concentration (IC50) is 7.42 µM.

For the compound `COc1ccc(C(=O)CSc2nnc(-c3ccco3)c(-c3ccco3)n2)cc1`, the IC50 was 6.45 µM.

Regarding `C[n+]1c2cc(N)ccc2cc2ccc(N)cc21`, the IC50 was 5.49 µM.

With `C=CCn1c(C)cc(C(=O)Cn2ncc(Cl)c(Cl)c2=O)c1C`, the IC50 result is “inactive”.

For `COC(=O)c1ccc(C)c(NC(=O)CSc2sc3c(O)cc(=O)[nH]c3c2C#N)c1`, the IC50 result is “inactive”.

As for `Oc1ccc(/C=N/NC(=S)Nc2cccnc2)cc1O`, the half-maximal inhibitory concentration (IC50) is 4.5 µM.

`N#C/C(=C\c1ccc(O)c(O)c1)C(=O)Nc1cccc2ncccc12`: the IC50 is 1.07 µM.

For `COc1cc(C)cc(C(=O)O)c1C1=C(O)c2cccc(O)c2C(=O)C1=O`, the concentration for half-maximal inhibition (IC50) was 4.87 µM.

Turning to `CC1=CC(C)(C)N2C(=O)C(=Nc3ccc(O)cc3)c3cccc1c32`, the IC50 is > 12.2 µM (inactive).

With `O=S(=O)(O)c1cc(Cl)cc(N=Nc2ccc(O)cc2O)c1O`, the half-inhibitory concentration (IC50) was 9.94 µM.

As for `CN(C)[C@@H]1C(=O)C(C(N)=O)=C(O)[C@@]2(O)C(=O)C3=C(O)c4c(O)cccc4[C@@](C)(O)C3[C@H](O)C12` (stereo not given in full), the IC50 result was “inactive”.

Take `Cc1ccc(/C=C/C(=O)Nc2ccc([N+](=O)[O-])c(NC(=O)/C=C/c3ccc(C)o3)c2)o1`: the IC50 result is “inactive”.

Regarding `S=C(Nc1ccc(N2CCOCC2)cc1)Nc1ccc2nc(-c3ccco3)c(-c3ccco3)nc2c1`, the IC50 was > 36.5 µM (inactive).

For `Cc1cc(C(=O)N/N=C/c2ccc(O)c([N+](=O)[O-])c2)c(C)n1-c1ccc(F)cc1`, the IC50 result was “inactive”.

In the case of `COC(=O)C1CCN(C(=O)c2cc(-c3ccco3)nc3ccccc23)CC1`, the IC50 is 5.92 µM.

On to `COc1c(O)cc2oc(-c3ccc(O)c(O)c3)cc(=O)c2c1O`, for which the half-inhibitory concentration (IC50) is 1.83 µM.

Consider `COc1ccc(NC(=S)Nc2ccc3nsnc3c2)cc1`, for which the IC50 entry is “inactive”.

For the compound `COc1ccc(NC(=O)CSc2sc3c(O)cc(=O)[nH]c3c2C#N)c(OC)c1`, the IC50 entry is “inactive”.

As to `CN(CCC#N)C(=O)COC(=O)c1c2c(nc3ccccc13)/C(=C\c1ccco1)CC2`, the IC50 was 2.56 µM.

Regarding `COc1ccc(/C=C2\C(=O)NC(=O)c3ccccc32)cc1OC`, the IC50 is 3.94 µM.

Turning to `O=C(CCc1ccc(S(=O)(=O)N2CCOCC2)cc1)N/N=C/c1ccc(O)c(O)c1O`, the IC50 entry is “inactive”.

For `N#C/C(=C\c1cc(O)c(O)c(O)c1)C(N)=O`, the IC50 is 9.6 µM.

For the compound `O=c1c(O)c(-c2ccc(O)c(O)c2)oc2cc(O)cc(O)c12`, the IC50 was 0.498 µM.

For `CN(C)c1ccc2cc(S(=O)(=O)O)cc(O)c2c1`, the IC50 was 4.49 µM.

For the compound `C=C(C)C(=O)Nc1cccc(C2=NOC3(C2)C[C@@H](C(N)=O)N(C(=O)/C=C/C=C/C)C3)c1` (stereo not given in full), the IC50 was 3.25 µM.

Take `O=C(Cc1cnn(-c2ccccc2)c1)c1ccc(O)c(O)c1O`: the IC50 was > 36.5 µM (inactive).

For the compound `COCCN=c1scc(-c2ccco2)n1/N=C/c1ccc(O)c(O)c1O`, the concentration for half-maximal inhibition (IC50) is 3.26 µM.

On to `NNc1cccc(C=Cc2ccccc2)cc1=O`, for which the IC50 was > 36.6 µM (inactive).

Take `C=C(C)C(=O)Nc1cccc(C2=NOC3(C2)C[C@@H](C(N)=O)N(C(=O)C2(C)CC2)C3)c1` (stereo not given in full): the IC50 was 2.39 µM.

With `O=S(=O)(O)c1cc(O)c(N=Nc2ccc(O)cc2O)c2ccccc12`, the IC50 result is “inactive”.
